Source: ChEMBL document CHEMBL1201861, “Genomics of Drug Sensitity in Cancer screening data, Wellcome Trust Sanger Institute”

Columns and labels:
[1] = tested on: COR-L23; assay: cells; type: functional, cell-based, Homo sapiens; conditions: Homo sapiens, COR-L23;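 also: cell viability assay measuring how strongly compounds suppress growth of COR-L23 cells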
Description: SANGER: Inhibition of human COR-L23 cell growth in a cell viability assay.

[2] = tested on: DOK; assay: cells; type: functional, cell-based, Homo sapiens; conditions: Homo sapiens, DOK;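 also: cell viability assay read-out, values reflect inhibition of cell growth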
Description: SANGER: Inhibition of human DOK cell growth in a cell viability assay.

[3] = tested on: GCT; assay: cells; type: functional, cell-based, Homo sapiens; conditions: Homo sapiens, GCT;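 also: GCT cell line proliferation inhibition, read out with a cell viability assay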
Description: SANGER: Inhibition of human GCT cell growth in a cell viability assay.

[4] = tested on: HCC1599; assay: cells; type: functional, cell-based, Homo sapiens; conditions: Homo sapiens, HCC1599;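 also: growth inhibition of HCC1599 cells, read out in a cell viability assay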
Description: SANGER: Inhibition of human HCC1599 cell growth in a cell viability assay.

[5] = tested on: HCC1806; assay: cells; type: functional, cell-based, Homo sapiens; conditions: Homo sapiens, HCC1806;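 also: growth inhibition of the cancer cell line, determined with a cell viability assay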
Description: SANGER: Inhibition of human HCC1806 cell growth in a cell viability assay.

[6] = tested on: HLE; assay: cells; type: functional, cell-based, Homo sapiens; conditions: Homo sapiens, HLE;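 also: growth inhibition of human HLE cells, read out by a cell viability assay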
Description: SANGER: Inhibition of human HLE cell growth in a cell viability assay.

[7] = tested on: HO-1-N-1; assay: cells; type: functional, cell-based, Homo sapiens; conditions: Homo sapiens, HO-1-N-1;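 also: growth inhibition of human HO-1-N-1 cells, read out with a cell viability assay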
Description: SANGER: Inhibition of human HO-1-N-1 cell growth in a cell viability assay.

[8] = tested on: HuP-T4; assay: cells; type: functional, cell-based, Homo sapiens; conditions: Homo sapiens, HuP-T4;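 also: cell viability assay measuring how much HuP-T4 cell growth is inhibited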
Description: SANGER: Inhibition of human HuP-T4 cell growth in a cell viability assay.

[9] = tested on: KYSE-410; assay: cells; type: functional, cell-based, Homo sapiens; conditions: Homo sapiens, KYSE-410;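 also: growth inhibition of KYSE-410 cells, measured through a cell viability readout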
Description: SANGER: Inhibition of human KYSE-410 cell growth in a cell viability assay.

[10] = tested on: LC4-1; assay: cells; type: functional, cell-based, Homo sapiens; conditions: Homo sapiens, LC4-1;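 also: growth inhibition of LC4-1 cells, read out with a cell viability assay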
Description: SANGER: Inhibition of human LC4-1 cell growth in a cell viability assay.

[11] = tested on: LP-1; assay: cells; type: functional, cell-based, Homo sapiens; conditions: Homo sapiens, LP-1;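 also: growth inhibition of human LP-1 cells, with the read-out taken from a cell viability assay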
Description: SANGER: Inhibition of human LP-1 cell growth in a cell viability assay.

[12] = tested on: LU-99A; assay: cells; type: functional, cell-based, Homo sapiens; conditions: Homo sapiens, LU-99A;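 also: growth inhibition of LU-99A cells, read out with a cell viability assay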
Description: SANGER: Inhibition of human LU-99A cell growth in a cell viability assay.

[13] = tested on: M059J; assay: cells; type: functional, cell-based, Homo sapiens; conditions: Homo sapiens, M059J;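 also: growth inhibition of M059J cells, read out with a cell viability assay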
Description: SANGER: Inhibition of human M059J cell growth in a cell viability assay.

[14] = tested on: MDA-MB-453; assay: cells; type: functional, cell-based, Homo sapiens; conditions: Homo sapiens, MDA-MB-453
Description: SANGER: Inhibition of human MDA-MB-453 cell growth in a cell viability assay.

[15] = tested on: MHH-CALL-2; assay: cells; type: functional, cell-based, Homo sapiens; conditions: Homo sapiens, MHH-CALL-2;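 also: growth inhibition of the cell line, read out in a cell viability assay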
Description: SANGER: Inhibition of human MHH-CALL-2 cell growth in a cell viability assay.

[16] = tested on: NCI-H1417; assay: cells; type: functional, cell-based, Homo sapiens; conditions: Homo sapiens, NCI-H1417;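 also: human NCI-H1417 cells, growth inhibition determined with a cell viability readout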
Description: SANGER: Inhibition of human NCI-H1417 cell growth in a cell viability assay.

[17] = tested on: NCI-H1436; assay: cells; type: functional, cell-based, Homo sapiens; conditions: Homo sapiens, NCI-H1436;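 also: growth suppression of human NCI-H1436 cells, determined with a cell viability readout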
Description: SANGER: Inhibition of human NCI-H1436 cell growth in a cell viability assay.

[18] = tested on: NCI-H2030; assay: cells; type: functional, cell-based, Homo sapiens; conditions: Homo sapiens, NCI-H2030;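 also: growth inhibition of human NCI-H2030 cells, read out by a cell viability assay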
Description: SANGER: Inhibition of human NCI-H2030 cell growth in a cell viability assay.

[19] = tested on: NCI-H2405; assay: cells; type: functional, cell-based, Homo sapiens; conditions: Homo sapiens, NCI-H2405;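 also: growth inhibition of the human cell line, read out with a cell viability assay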
Description: SANGER: Inhibition of human NCI-H2405 cell growth in a cell viability assay.

[20] = tested on: NCI-H322M; assay: cells; type: functional, cell-based, Homo sapiens; conditions: Homo sapiens, NCI-H322M;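 also: cell viability assay measuring inhibition of growth of human NCI-H322M cells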
Description: SANGER: Inhibition of human NCI-H322M cell growth in a cell viability assay.

[21] = tested on: NCI-H441; assay: cells; type: functional, cell-based, Homo sapiens; conditions: Homo sapiens, NCI-H441;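 also: growth inhibition of NCI-H441 cells, read out with a cell viability assay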
Description: SANGER: Inhibition of human NCI-H441 cell growth in a cell viability assay.

[22] = tested on: NUGC-3; assay: cells; type: functional, cell-based, Homo sapiens; conditions: Homo sapiens, NUGC-3;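 also: growth inhibition of human NUGC-3 cells, read out with a cell viability assay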
Description: SANGER: Inhibition of human NUGC-3 cell growth in a cell viability assay.

[23] = tested on: OVCAR-3; assay: cells; type: functional, cell-based, Homo sapiens; conditions: Homo sapiens, OVCAR-3;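 also: growth inhibition of human OVCAR-3 cells, determined by a cell viability assay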
Description: SANGER: Inhibition of human OVCAR-3 cell growth in a cell viability assay.

[24] = tested on: RD; assay: cells; type: functional, cell-based, Homo sapiens; conditions: Homo sapiens, RD
Description: SANGER: Inhibition of human RD cell growth in a cell viability assay.

[25] = tested on: RERF-LC-MS; assay: cells; type: functional, cell-based, Homo sapiens; conditions: Homo sapiens, RERF-LC-MS;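 also: growth inhibition of human RERF-LC-MS cells, read out by a cell viability assay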
Description: SANGER: Inhibition of human RERF-LC-MS cell growth in a cell viability assay.

[26] = tested on: RL; assay: cells; type: functional, cell-based, Homo sapiens; conditions: Homo sapiens, RL
Description: SANGER: Inhibition of human RL cell growth in a cell viability assay.

[27] = tested on: RPMI-7951; assay: cells; type: functional, cell-based, Homo sapiens; conditions: Homo sapiens, RPMI-7951
Description: SANGER: Inhibition of human RPMI-7951 cell growth in a cell viability assay.

[28] = tested on: SAS; assay: cells; type: functional, cell-based, Homo sapiens; conditions: Homo sapiens, SAS;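 also: growth inhibition of SAS cells, read out with a cell viability assay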
Description: SANGER: Inhibition of human SAS cell growth in a cell viability assay.

[29] = tested on: SCC-25; assay: cells; type: functional, cell-based, Homo sapiens; conditions: Homo sapiens, SCC-25;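 also: growth inhibition of SCC-25 cells, measured with a cell viability assay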
Description: SANGER: Inhibition of human SCC-25 cell growth in a cell viability assay.

[30] = tested on: SK-N-AS; assay: cells; type: functional, cell-based, Homo sapiens; conditions: Homo sapiens, SK-N-AS;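 also: growth inhibition of human SK-N-AS cells, measured with a cell viability assay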
Description: SANGER: Inhibition of human SK-N-AS cell growth in a cell viability assay.

[31] = tested on: ST486; assay: SANGER: Inhibition of human ST486 cell growth in a cell viability assay.; type: functional, cell-based; conditions: Homo sapiens, ST486
[32] = tested on: SU-DHL-1; assay: SANGER: Inhibition of human SU-DHL-1 cell growth in a cell viability assay.; type: functional, cell-based; conditions: Homo sapiens, SU-DHL-1
[33] = tested on: SW1463; assay: cells; type: functional, cell-based, Homo sapiens; conditions: Homo sapiens, SW1463;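 also: growth inhibition of SW1463 cells, determined with a cell viability assay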
Description: SANGER: Inhibition of human SW1463 cell growth in a cell viability assay.

[34] = tested on: SW1710; assay: cells; type: functional, cell-based, Homo sapiens; conditions: Homo sapiens, SW1710;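 also: growth inhibition of SW1710 cells, determined with a cell viability assay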
Description: SANGER: Inhibition of human SW1710 cell growth in a cell viability assay.

[35] = tested on: SW48; assay: cells; type: functional, cell-based, Homo sapiens; conditions: Homo sapiens, SW48;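 also: growth inhibition of SW48 cells, read out with a cell viability assay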
Description: SANGER: Inhibition of human SW48 cell growth in a cell viability assay.

[36] = tested on: SW948; assay: cells; type: functional, cell-based, Homo sapiens; conditions: Homo sapiens, SW948;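 also: growth inhibition of SW948 cells, read out with a cell viability assay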
Description: SANGER: Inhibition of human SW948 cell growth in a cell viability assay.

[37] = tested on: 23132-87; assay: cells; type: functional, cell-based, Homo sapiens; conditions: Homo sapiens
Description: SANGER: Inhibition of human 23132-87 cell growth in a cell viability assay.

[38] = tested on: ABC-1; assay: cells; type: functional, cell-based, Homo sapiens; conditions: Homo sapiens, ABC-1;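 also: growth inhibition of human ABC-1 cells, read out by a cell viability assay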
Description: SANGER: Inhibition of human ABC-1 cell growth in a cell viability assay.

[39] = tested on: AU565; assay: cells; type: functional, cell-based, Homo sapiens; conditions: Homo sapiens, AU565;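 also: cell viability assay measuring growth inhibition of human AU565 cells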
Description: SANGER: Inhibition of human AU565 cell growth in a cell viability assay.

[40] = tested on: BEN; assay: cells; type: functional, cell-based, Homo sapiens; conditions: Homo sapiens, BEN;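 also: growth inhibition of the BEN cell line, read out with a cell viability assay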
Description: SANGER: Inhibition of human BEN cell growth in a cell viability assay.

[41] = tested on: CAL-39; assay: cells; type: functional, cell-based, Homo sapiens; conditions: Homo sapiens, CAL-39;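 also: cell viability assay measuring growth inhibition of CAL-39 cells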
Description: SANGER: Inhibition of human CAL-39 cell growth in a cell viability assay.

[42] = tested on: CAL-72; assay: cells; type: functional, cell-based, Homo sapiens; conditions: Homo sapiens, CAL-72;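 also: cell viability assay measuring inhibition of proliferation in the CAL-72 cell line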
Description: SANGER: Inhibition of human CAL-72 cell growth in a cell viability assay.

[43] = tested on: U-118-MG; assay: cells; type: functional, cell-based, Homo sapiens; conditions: Homo sapiens, U-118-MG
Description: SANGER: Inhibition of human U-118-MG cell growth in a cell viability assay.

[44] = tested on: UACC-62; assay: cells; type: functional, cell-based, Homo sapiens; conditions: Homo sapiens, UACC-62;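 also: growth inhibition of human UACC-62 cells, read out by a cell viability assay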
Description: SANGER: Inhibition of human UACC-62 cell growth in a cell viability assay.

[45] = tested on: CAMA-1; assay: cells; type: functional, cell-based, Homo sapiens; conditions: Homo sapiens, CAMA-1;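 also: growth inhibition of CAMA-1 cells, read out with a cell viability assay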
Description: SANGER: Inhibition of human CAMA-1 cell growth in a cell viability assay.

[46] = tested on: CESS; assay: SANGER: Inhibition of human CESS cell growth in a cell viability assay.; type: functional, cell-based; conditions: Homo sapiens, CESS
[47] = tested on: COLO-678; assay: cells; type: functional, cell-based, Homo sapiens; conditions: Homo sapiens, COLO-678
Description: SANGER: Inhibition of human COLO-678 cell growth in a cell viability assay.

CCC/C=C/C=C/C(=O)O[C@H]1/C(=C/C(=O)OC)C[C@H]2C[C@H]([C@@H](C)O)OC(=O)C[C@H](O)C[C@@H]3C[C@H](OC(C)=O)C(C)(C)[C@](O)(C[C@@H]4C/C(=C/C(=O)OC)C[C@H](/C=C/C(C)(C)[C@]1(O)O2)O4)O3 [BRYOSTATIN 1]
IC50 [1]: > 8 nM
IC50 [2]: > 8 nM
IC50 [3]: > 8 nM
IC50 [4]: > 8 nM
IC50 [5]: > 8 nM
IC50 [6]: > 8 nM
IC50 [7]: > 8 nM
IC50 [8]: > 8 nM
IC50 [9]: > 8 nM
IC50 [10]: > 8 nM
IC50 [11]: > 8 nM
IC50 [12]: > 8 nM
IC50 [13]: 2 nM
IC50 [14]: > 8 nM
IC50 [15]: > 8 nM
IC50 [16]: > 8 nM
IC50 [17]: > 8 nM
IC50 [18]: > 8 nM
IC50 [19]: > 8 nM
IC50 [20]: > 8 nM
IC50 [21]: > 8 nM
IC50 [22]: > 8 nM
IC50 [23]: > 8 nM
IC50 [24]: > 8 nM
IC50 [25]: > 8 nM
IC50 [26]: > 8 nM
IC50 [27]: > 8 nM
IC50 [28]: > 8 nM
IC50 [29]: > 8 nM
IC50 [30]: > 8 nM
IC50 [31]: > 8 nM
IC50 [32]: > 8 nM
IC50 [33]: > 8 nM
IC50 [34]: > 8 nM
IC50 [35]: > 8 nM
IC50 [36]: > 8 nM
IC50 [37]: > 8 nM
IC50 [38]: > 8 nM
IC50 [39]: > 8 nM
IC50 [40]: > 8 nM
IC50 [41]: > 8 nM
IC50 [42]: > 8 nM
IC50 [43]: > 8 nM
IC50 [44]: > 8 nM
IC50 [45]: > 8 nM
IC50 [46]: > 8 nM
IC50 [47]: > 8 nM

COc1cccc2c1C(=O)c1c(O)c3c(c(O)c1C2=O)C[C@@](O)(C(=O)CO)C[C@@H]3O[C@H]1C[C@H](N)[C@H](O)[C@H](C)O1 [DOXORUBICIN]
IC50 [1]: 32 nM
IC50 [2]: 1020 nM
IC50 [3]: 861 nM
IC50 [4]: 72.5 nM
IC50 [5]: 75 nM
IC50 [6]: 35.8 nM
IC50 [7]: 223 nM
IC50 [8]: 52.2 nM
IC50 [9]: 103 nM
IC50 [10]: 241 nM
IC50 [11]: > 1020 nM
IC50 [12]: 147 nM
IC50 [13]: 31.4 nM
IC50 [14]: > 1020 nM
IC50 [15]: 359 nM
IC50 [16]: 370 nM
IC50 [17]: > 1020 nM
IC50 [18]: 28.3 nM
IC50 [19]: 234 nM
IC50 [20]: > 1020 nM
IC50 [21]: 28.4 nM
IC50 [22]: 45.2 nM
IC50 [23]: 470 nM
IC50 [24]: 180 nM
IC50 [25]: 425 nM
IC50 [26]: > 1020 nM
IC50 [27]: 130 nM
IC50 [28]: 114 nM
IC50 [29]: 154 nM
IC50 [30]: > 1020 nM
IC50 [31]: 15.5 nM
IC50 [32]: 103 nM
IC50 [33]: > 1020 nM
IC50 [34]: 17.4 nM
IC50 [35]: 49.7 nM
IC50 [36]: > 1020 nM
IC50 [37]: 15.4 nM
IC50 [38]: 83.4 nM
IC50 [39]: 105 nM
IC50 [40]: > 1020 nM
IC50 [41]: 98.2 nM
IC50 [42]: 841 nM
IC50 [43]: 856 nM
IC50 [44]: > 1020 nM
IC50 [45]: 159 nM
IC50 [46]: 39.4 nM
IC50 [47]: 427 nM

Nc1ccn([C@@H]2O[C@H](CO)[C@@H](O)C2(F)F)c(=O)n1 [GEMCITABINE]
IC50 [1]: 14.1 nM
IC50 [2]: > 1020 nM
IC50 [3]: 405 nM
IC50 [4]: 70.2 nM
IC50 [5]: 2.91 nM
IC50 [6]: 3 nM
IC50 [7]: 23.8 nM
IC50 [8]: 27.3 nM
IC50 [9]: 55.9 nM
IC50 [10]: 74.7 nM
IC50 [11]: > 1020 nM
IC50 [12]: > 1020 nM
IC50 [13]: 21.1 nM
IC50 [14]: > 1020 nM
IC50 [15]: 1020 nM
IC50 [16]: > 1020 nM
IC50 [17]: > 1020 nM
IC50 [18]: 30.4 nM
IC50 [19]: 19.1 nM
IC50 [20]: > 1020 nM
IC50 [21]: 5.6 nM
IC50 [22]: 18.3 nM
IC50 [23]: > 1020 nM
IC50 [24]: 130 nM
IC50 [25]: 177 nM
IC50 [26]: > 1020 nM
IC50 [27]: < 4 nM
IC50 [28]: 20.5 nM
IC50 [29]: 289 nM
IC50 [30]: > 1020 nM
IC50 [31]: 9.41 nM
IC50 [32]: 62.7 nM
IC50 [33]: 510 nM
IC50 [34]: < 4 nM
IC50 [35]: 463 nM
IC50 [36]: > 1020 nM
IC50 [37]: 43.1 nM
IC50 [38]: 22.6 nM
IC50 [39]: 21.8 nM
IC50 [40]: 238 nM
IC50 [41]: > 1020 nM
IC50 [42]: > 1020 nM
IC50 [43]: > 1020 nM
IC50 [44]: 813 nM
IC50 [45]: 396 nM
IC50 [46]: 23.2 nM
IC50 [47]: > 1020 nM
